Measured values taken from patent publication US20220267445A1, “Methods and Compositions for Determining Susceptibility to Treatment with Checkpoint Inhibitors” (Novocure GmbH, priority 2021, published 2022).

Columns and labels:
[1] = test system: U87MG, LN428 and LN827 GBM cells; test: TTFields-induced cytosolic micronuclei clusters with cGAS and AIM2 recruitment (immunofluorescence, confocal); type: cell-based, human; conditions: ribociclib 4.5 μM
Experimental: FIG. 1C, FIG. 1D, FIG. 1E, and FIG. 1F show exemplary confocal images with z stack showing immunofluorescent staining for cGAS, AIM2, and LAMINA/C with DAPI counter-staining in LN428 GBM cells that were pretreated with either the vehicle (FIG. 1C, FIG. 1E) or ribociclib (4.5 μM) (FIG. 1D, FIG. 1F) to induce G1 arrest, then non-treated (FIG. 1C, FIG. 1D) or treated with TTFields for 24 hours (FIG. 1E,
FIG. 1G provides an exemplary bar graph showing percentages of cells with large cytosolic micronuclei clusters with cGAS and AIM2 recruitment being dependent on TTFields in the 3 indicated GBM cell lines treated as described with respect to FIG. 1C, FIG. 1D, FIG. 1E, and FIG. 1F;
To address this question, cells were pretreated for 24 hours prior to and during a 24 hour exposure to TTFields with ribociclib, a potent inhibitor of cyclin-dependent kinases 4 and 6, to induce G1 arrest^31 (FIG. 1H).
Cells grown on cover slips were fixed with 4% paraformaldehyde for 30 min at 4° C., incubated overnight at 4° C. with different combinations of primary antibodies (dilution 1:500) against indicated antigens and then for 2 hours at room temperature with appropriate fluorochrome-conjugated secondary antibodies, (dilution 1:500). Labeled cells were counterstained with DAPI (Thermo Fisher, Cat #D1306) at 1 μgm/ml and images captured and analyzed, using a Zeiss 800 inverted confocal microscope. […]

LN428 cells = test: DNA content analysis by propidium iodide (PI) staining; type: cell-based, human; conditions: ribociclib 4.5 μM, 0 and 24 hours

CN(C)C(=O)c1cc2cnc(Nc3ccc(N4CCNCC4)cn3)nc2n1C1CCCC1 [ribociclib]
percentage of cells with cGAS and AIM2-recruited micronuclei clusters after TTFields, G1-arrested cells compared to cycling cells ([1]; 24 hours prior to and during 24 hour TTFields (200 kHz), all 3 lines): consistently decreased | cluster formation, ribociclib treatment alone ([1]; no TTFields): did not increase | G1-S arrest (LN428 cells): effective G1-S arrest
